The assay can be described thus: pharmacological activity of GGA isomers (test not described). The conditions noted are these: at low concentrations; statement in words only, no data given.

Regarding `CC(=O)CC/C=C(/C)CC/C=C(\C)CC/C=C(\C)CCC=C(C)C` (single isomer, unassigned) [cis-isomer of GGA, 5Z, 9E, 13E geranylgeranyl acetone], the pharmacological activity entry is “at best of minimal activity”. For the compound `CC(=O)CC/C=C(\C)CC/C=C(\C)CC/C=C(\C)CCC=C(C)C` (single isomer, unassigned) [trans-isomer of GGA, trans-GGA], the pharmacological activity result is on record as “pharmacologically active”.

(Values after patent US20140275281A1, “Geranylgeranyl acetone and derivatives thereof for intranasal administration” (COYOTE PHARMACEUTICALS, INC., priority 2013, published 2014).)
